Source: patent US5264445A, “(-)-N"-cyano-N-3-pyridyl-N'-1,2,2-trimethylpropylguanidine” (Eli Lilly and Company, priority 1992, dated 1993)

Columns and labels:
[1] = test system: spontaneously hypertensive rats; details: cited from earlier work
Purkinje fiber = Purkinje fiber assay: reducing the Purkinje fiber action potential duration; type: cell-based; details: reducing canine Purkinje fiber action potential duration in vitro, ±SEM
Description: (§1) All six compounds were tested in the Purkinje fiber and canine cephalic vein assays taught by Steinberg et al., Journal of Cardiovascular Pharmacology, 12 (Suppl. 2), S30-S40 (1988). The effective concentration for reducing the Purkinje fiber action potential duration and for relaxing phenylephrine-contracted cephalic veins, respectively, otherwise known as the EC50, was determined for each compound and is reported in Table I.

[2] = test system: phenylephrine-contracted cephalic veins; test: Canine cephalic vein assay: relaxing phenylephrine-contracted cephalic veins; type: cell-based; details: relaxing phenylephrine-contracted canine cephalic veins in vitro, ±SEM
Description: as §1

potassium channels [3] = test: Potency as potassium channel opener (comparison of isomers); details: compared with its (+) enantiomer, pinacidil, or any of the pinacidil enantiomers
From the text: Pinacidil is currently undergoing clinical trials to determine its antihypertensive potential. By virtue of the branched N-alkyl side chain, pinacidil is a mixture of two enantiomers. Recently, both enantiomers have been prepared and studied -- see, Weston et al., Drugs, 36 (Suppl. 7), 10 (1988).

potassium channels [4] = details: reported by Weston et al., Drugs, 36 (Suppl. 7), 10 (1988); cited from earlier work
[5] = Canis lupus familiaris, purkinje

| SMILES | EC50 (Purkinje fiber; [5]) [µM] | EC50 ([2]; Canis lupus familiaris) [µM] | EC50 (Purkinje fiber) [µM] | EC50 [2] [µM] | minimal effective dose (MED) to decrease blood pressure [1] [mg/kg] | relative potency as a potassium channel opener (potassium channels [3]) | relative potency of pinacidil enantiomers (potassium channels [4]) |
| --- | --- | --- | --- | --- | --- | --- | --- |
| CC(NC(=NC#N)Nc1cccnc1)C(C)(C)C (single isomer, unassigned; (+)) [(+)-N"-cyano-N-3-pyridyl-N'-1,2,2-trimethylpropylguanidine] | – | – | 23 ± 4.7 | 6.41 ± 1.8 | – | – | – |
| CC(NC(=NC#N)Nc1ccncc1)C(C)(C)C (single isomer, unassigned; (+)) [(+)-Pinacidil] | – | – | 55 ± 9.6 | 9.55 ± 0.07 | – | – | – |
| CC(NC(=NC#N)Nc1cccnc1)C(C)(C)C (single isomer, unassigned; (-)) [(-)-N"-cyano-N-3-pyridyl-N'-1,2,2-trimethylpropylguanidine] | – | – | 0.43 ± 0.26 | 0.09 ± 0.03 | – | considerably more potent | – |

More lines, main results first:

| EC50 (Purkinje fiber; [5]) [µM] | EC50 ([2]; Canis lupus familiaris) [µM] | EC50 (Purkinje fiber) [µM] | EC50 [2] [µM] | SMILES | minimal effective dose (MED) to decrease blood pressure [1] [mg/kg] | relative potency as a potassium channel opener (potassium channels [3]) | relative potency of pinacidil enantiomers (potassium channels [4]) |
| --- | --- | --- | --- | --- | --- | --- | --- |
| 3 ± 1 | 0.76 ± 0.12 | – | – | CC(N/C(=N\C#N)Nc1ccncc1)C(C)(C)C (racemic) [(±)-Pinacidil, N"-cyano-N-4-pyridyl-N'-1,2,2-trimethylpropylguanidine] | 0.5 | – | – |
| 0.5 ± 0.03 | 0.56 ± 0.14 | – | – | CC(NC(=NC#N)Nc1cccnc1)C(C)(C)C (racemic) [N"-cyano-N-3-pyridyl-N'-1,2,2-trimethylpropylguanidine] | 1 | – | – |
| – | – | 3.2 ± 1.2 | 0.44 ± 0.1 | CC(NC(=NC#N)Nc1ccncc1)C(C)(C)C (single isomer, unassigned; (-)) [(-)-Pinacidil] | – | – | more potent than the (+) isomer |
